In patent US20220330548A1, “Peptides with Phytosanitary Activities” (Universita' Degli Studi Di Padova, priority 2021, published 2022):
[ ]: non-standard residue; d: D form. The star is where a group is joined. Octanoyl = CCCCCCCC(=O)*; Aib = CC(C)(N)C(=O)O

Tests used:
[1] = system: Plasmopara viticola; experiment: Infection by P. viticola on vine leaf discs; format: in vivo, Plasmopara viticola on vine leaf discs (cv. Glera); details: peptide 50 μM, 12 days after inoculation
Experimental: Infection tests were performed on vine leaf disks (cv. Glera) of 1 cm in diameter. Twenty leaf discs obtained from randomly collected leaves from different plants were placed with the lower side facing upwards on moistened sterile paper placed in Petri dishes (15 cm diameter). Approximately 0.1 mL of each aqueous solution containing the peptide (50 μM) was distributed on each leaf disc. Aqueous suspensions of P. viticola sporangia, collected from infected vine plants, were diluted to obtain 3-5×10^5 sporangia/mL and distributed on the leaf discs. The plates containing the leaf discs were incubated in the dark at room temperature (22-23° C.). The incidence was calculated 12 days after inoculation as the ratio of the number of sporulating discs to the total number of discs inoculated. Control plates contained water-treated leaf discs. Two or three plates were used for each treatment. The data obtained were statistically analysed by applying the Anova and Bonferroni-Holmes one-way test.

[2] = system: Botrytis cinerea; format: cell-based, Botrytis cinerea (strain PM10)
[3] = system: Pyricularia oryzae; design: species or system Pyricularia oryzae strain IT10 on barley leaves; details: in vivo
[4] = system: Fusarium graminearum; design: species or system Fusarium graminearum on ears of wheat; details: in vivo
[5] = system: Fusarium graminearum; format: cell-based
[6] = system: Pyricularia oryzae; format: cell-based
[7] = system: Pyricularia oryzae; format: cell-based, Pyricularia oryzae (strain IT10)
[8] = system: Fusarium graminearum; format: cell-based, Fusarium graminearum (strain 8/1)

## 1-octanoyl-Aib-Gly-Leu-Aib-Gly-Gly-Leu-Aib-Lys(HCl)-Ile-Leu-NH2 (Octanoyl-[Aib]GL[Aib]GGL[Aib]KIL-NH2; also: Lys9 as HCl salt) [SEQ. ID. No. 6]
[1]
  incidence of Plasmopara viticola infection on vine leaf discs: significantly decreases the P. viticola infection

## 1-octanoyl-Aib-Gly-Leu-Aib-Gly-Gly-Leu-Aib-Lys(HCl)-Ile-Lol [SEQ. ID. No. 5]
[2]
  decrease of growth of Botrytis cinerea compared to the untreated control: at least 95%
[1]
  incidence of Plasmopara viticola infection on vine leaf discs: significantly decreases the P. viticola infection

## 1-octanoyl-Aib-Lys(HCl)-Leu-Aib-Lys(HCl)-Gly-Leu-Aib-Lys(HCl)-Ile-Lol [SEQ. ID. No. 1]
[3]
  decrease of infected (lesion) area of barley leaves compared to control leaves: at least 95%
[4]
  decrease of infection (infected spikelets) in treated ears compared to untreated control ears: at least 95%
  further decrease of infection compared with treatment with PEP4 and PEP4-rink: 10-30%
  protection of the ear of wheat against infection caused by Fusarium graminearum: protects the ear of wheat against infection caused by Fusarium graminearum
  protection of the ear of wheat compared with the known peptide PEP4: greater
[5]
  microscopic observation of Fusarium graminearum after treatment: germination is inhibited and the cytoplasm is agglutinated
[6]
  microscopic observation of Pyricularia oryzae spores after treatment: germination is inhibited and the cytoplasm is agglutinated
  viability of Pyricularia oryzae spores (autofluorescence of agglutinated cytoplasm): the cells are no longer viable

## 1-octanoyl-Leu-Aib-Lys(HCl)-Ile-Leu-NH2 [SEQ. ID. No. 10]
[7]
  decrease of growth of Pyricularia oryzae compared to the untreated control: at least 95%
[2]
  decrease of growth of Botrytis cinerea compared to the untreated control: at least 95%
[8]
  decrease of growth of Fusarium graminearum compared to the untreated control: at least 95%
